# “And” between values parts separate entries of the source, which are not always exact repeats. Equal entries are not always repeated.
# Key:
# Th1 cells = experiment: Th1 polarization, IFN-γ by flow cytometry (Figure 1F); format: cell-based, mouse
# Protocol: Naive CD4^+ T cells were isolated from the spleens of C57BL/6J or CD45.1^+ OT-II mice using the MojoSort Mouse CD4 Naive T Cell Isolation Kit (BioLegend, catalog 480040), following the manufacturer’s protocol. Purified cells were cultured in RPMI-1640 medium supplemented with 10% FBS, 1% penicillin-streptomycin, and 0.1% β-mercaptoethanol (Gibco, catalog 21985023).
# T cell polarization was initiated under plate-bound anti-CD3 (2 μg/mL, clone 17A2, BioXCell, catalog BE0002) and soluble anti-CD28 (1 μg/mL, clone 37.51, BioXCell, catalog BE0015-1) stimulation, with the addition of cytokines and neutralizing antibodies specific to each subset. For Th9 cells, these included IL-4 (10 ng/mL, Peprotech, catalog 400-04), TGF-β (1 ng/mL, EPOTO Biotech, catalog HF-2021), anti–IL-12 (5 μg/mL, clone C17.8, BioXCell, catalog BE0051), and anti–IFN-γ (10 μg/mL, clone XMG1.2, BioXCell, catalog BE0055); for Th1 cells, these included IL-12 (10 ng/mL, GenScript, catalog Z03211-50) and anti–IL-4 (5 μg/mL, clone 11B11, BioXCell, catalog BE0045); for Th2 cells, these included IL-4 (50 ng/mL), anti–IFN-γ (20 μg /mL), anti–IL-12 (5 μg/mL), Th17 cells: IL-6 (20 ng/mL, EPOTO Biotech, catalog MF-1006), TGF-β (1 ng/mL), IL-1β (10 ng/mL, Peprotech, catalog AF-211-11B), anti–IFN-γ (10 μg/mL), anti–IL-12 (5 μg/mL), and anti–IL-4 (5 μg/mL); and for Tregs, these included TGF-β (3 ng/mL). […]
# human Th9 CAR T cells = experiment: CAR lentivirus infection efficiency, GFP (S9C); format: cell-based; settings: representative flow plot, Figure S9C
# Description: Ct EpA Fat Fat Ct EpA Fat Fat
# (A) Flow-cytometric analysis of intracellular IL-9 expression in human Th9 cells […]
# (B) Flow-cytometric assessment of mitochondrial mass using Mito Tracker in human Th9 cells treated as in (A) (n = 3).
# (C) Flow-cytometric analysis of infection efficiency in Th9 cells transduced with a CD19-directed CAR lentivirus. (D and E) Flow-cytometric analysis of IL-9 expression in human Th9 CAR-T cells on days 5 and 6 of in vitro differentiation, showing representative plots (D) and quantification (E) (n = 3). (F) Measurement of intracellular ATP levels normalized to cell number in human Th9 CAR-T c e l l s (n =5).
# (G) Flow-cytometric analysis of mitochondrial mass using Mito Tracker in human Th9 CAR-T c e l l s (n = 3). (H and I) Flow-cytometric analysis of granzyme B⁺ CAR-Th9 cells isolated from spleens after adoptive transfer, showing representative plots (H) and quantification (I) (n = 5 mice per group). Statistical analysis was performed using one-way ANOVA with Tukey’s post hoc test (A and B), or two-tailed unpaired Student’s t-test (E–G, and I). Repeated data are presented as mean ± SEM. *p < 0.05, […]
# [1] = tested on: lipid species of Th9 cells; experiment: Untargeted lipidomics of Th9 cells (Figure 6B); format: cell-based, mouse; settings: day 4; result in words
# Protocol: Comprehensive lipidomic profiling was performed using a liquid chromatography–mass spectrometry (LC-MS) platform. Briefly, samples were first subjected to protein precipitation and impurity removal to ensure metabolite integrity. Lipid species were then extracted using a solvent-based protocol optimized for broad lipid class coverage. LC-MS analysis was conducted in both positive and negative ionization modes to maximize lipid detection breadth. Mass spectrometry data, including MS and MS/MS spectra, were acquired using a high-resolution instrument. Lipid identification and quantification were performed using LipidSearch software (Thermo Fisher Scientific), which generated a lipid expression matrix for downstream statistical and pathway analysis.
substance,measurement,setting,value
anteiso-C15 Leu7 surfactin [EpA],IFN-γ expression under Th1 polarization,"Th1 cells; EpA 10 μM, individual replicates, n = 4",80 and 84.2 and 74.8 and 80.3
same,effect on Th1 polarization,Th1 cells; result in words,did not affect
same,GFP gate number (infection efficiency),human Th9 CAR T cells,47.8
same,lipid species,[1],global reduction in lipid species

# — article PMC12867150, “A fungi-derived cyclic peptide enhances Th9-mediated antitumor immunity by targeting ZAP70 and SREBP1” (The Journal of Clinical Investigation, 2025)
